Reference: patent publication US20220033784A1 (priority 2020, published 2022)

How the values were obtained:
[1] = system: HH cells (IL-2 CD122/CD132 (β/γ) receptor complex); experiment: pSTAT5 ELISA in HH cells; format: cell-based; details: for Selectivity HH/iTreg: higher value = greater selectivity for HH cells; for EC50: pSTAT5 level 50% of maximum, InstantOne ELISA, read-out: EC50 HH T cell
Experimental: (§1) The ability of the IL-2 variants to activate HH cells and iTregs was measured by monitoring relative changes in phosphorylated STAT5 (pSTAT5) in response to treatment of the cells with the IL-2 variants. pSTAT5 is known to be a downstream consequence of IL-2 signaling. HH T cells (ATCC CRL-2105) are a line of T cells that lack the alpha chain of the IL-2 receptor complex, but that contain the beta and gamma chains of the IL-2 receptor complex. iTreg cells were prepared from Fresh Leuko Paks obtained from […] Technologies (CAT #70500.1, Donor #D001003551).
(§2) For IL-2 activation, the HH cells and iTreg cells were plated at 2*10e6 cells/well in 50 ul serum-free RPMI 1640 media (Gibco), and allowed to rest at 37° C. After resting, cells were treated the IL-2 molecules listed above, and cells were then pelleted by centrifugation.
(§3) Following treatment with the IL-2 molecules, cell induction status was evaluated by the InstantOne ELISA pSTAT5 detection kit (Invitrogen).

[2] = system: iTreg cells (IL-2 CD25/CD122/CD132 (α/β/γ) receptor complex); experiment: pSTAT5 ELISA in iTreg cells; format: cell-based; details: pSTAT5 level 50% of maximum, InstantOne ELISA; read-out: EC50 iTreg cell
Experimental: as §1, §2, §3

CD8 T cells = experiment: pSTAT5 flow cytometry in hPBMCs: CD8 T cells; format: cell-based, human; details: for Selectivity CD8/Treg: larger numbers = greater selectivity for CD8 T cells over Treg cells; for EC50: pSTAT5 MFI in hPBMCs, 20 minutes at 37° C., read-out: EC50 CD8 T cell
Experimental: (§4) In this experiment, the ability of the IL-2 variants to activate CD8 T cells, NK cells, and Treg cells was measured by monitoring relative changes in pSTAT5 in response to treatment of the cells with the IL-2 variants. The IL-2 variants tested in this experiment were each fused to a human IgG Fc domain as described in Example 15. […]; Blood from healthy volunteers was taken and hPBMCs were isolated using a ficoll-paque (GE Healthcare) gradient, washed with PBS to remove platelets, and cleared of red blood cells using ACK lysis buffer (Gibco). Cells were then plated at 1*10e6 cells/well in 90 uL serum-free RPMI 1640 media (Gibco) and allowed to rest for 2-4 hours at 37° C. After resting, cells were treated the IL-2 molecules listed above (10 uL), at the indicated concentrations for 20 minutes at 37° C., and 25 uL 20% PFA was immediately added with gentle pipetting. Cells were then pelleted by centrifugation and aspirated (400 RCF, 7 minutes).
(§5) Phosflow Perm Buffer III (BD Biosciences) was added (200 uL), and the cells were mixed gently by pipetting up and down once to prevent clumping. Cells were then washed twice with 200 uL FACS buffer followed by pelleting by centrifugation (400 RCF, 7 minutes). Cells were in resuspended in 200 uL FACS buffer and incubated with the antibodies in Table D and Table E per standard procedure then suspended in 200 uL FACS buffer for FACS analysis. Data was analyzed using FlowJo v10 software.

NK cells = experiment: pSTAT5 flow cytometry in hPBMCs: NK cells; format: cell-based, human; details: for Selectivity NK/Treg: larger numbers = greater selectivity for NK cells over Treg cells; for EC50: pSTAT5 MFI in hPBMCs, 20 minutes at 37° C., read-out: EC50 NK cell
Experimental: as §4, §5

Treg cells = experiment: pSTAT5 flow cytometry in hPBMCs: Treg cells; format: cell-based, human; details: pSTAT5 MFI in hPBMCs, 20 minutes at 37° C.; read-out: EC50 Treg cell
Experimental: as §4, §5

With Fc-IL2-E62N:K64T the “Selectivity HH/iTreg” value [1] was 3.84 × 10^−4, the EC50 [1] was 52.1 nM and the EC50 [2] was 0.02 nM. The “Selectivity CD8/Treg” value (CD8 T cells) was 0.09, the EC50 (CD8 T cells) was 25.5 nM and the “Selectivity NK/Treg” value (NK cells) was 0.62. It also gave an EC50 (NK cells) of 3.65 nM and an EC50 (Treg cells) of 2.26 nM.

For Fc-IL2-T41N:K43T, the “Selectivity HH/iTreg” value [1] was 2.69 × 10^−4, the EC50 [1] was 37.2 nM and the EC50 [2] was 0.01 nM. For the same substance, the “Selectivity CD8/Treg” value (CD8 T cells) was 0.07, the EC50 (CD8 T cells) was 31.2 nM and the “Selectivity NK/Treg” value (NK cells) was 0.7. The EC50 (NK cells) was 3.05 nM and the EC50 (Treg cells) was 2.13 nM.

With Fc-IL2-K35N the “Selectivity CD8/Treg” value (CD8 T cells) was 0.00284, the EC50 (CD8 T cells) was 24.6 nM and the “Selectivity NK/Treg” value (NK cells) was 0.0276. The EC50 (NK cells) was 2.54 nM and the EC50 (Treg cells) was 0.07 nM.

For Fc-IL2-L72N:Q74T, the “Selectivity HH/iTreg” value [1] was 8.4 × 10^−4, the EC50 [1] was 47.6 nM and the EC50 [2] was 0.04 nM. For the same substance, the “Selectivity CD8/Treg” value (CD8 T cells) was 0.1, the EC50 (CD8 T cells) was 22.1 nM and the “Selectivity NK/Treg” value (NK cells) was 0.98. It also gave an EC50 (NK cells) of 2.33 nM and an EC50 (Treg cells) of 2.29 nM.

With Fc-IL2-R38N:L40T the “Selectivity HH/iTreg” value [1] was 6.75 × 10^−4, the EC50 [1] was 163 nM and the EC50 [2] was 0.11 nM. For the same substance, the “Selectivity CD8/Treg” value (CD8 T cells) was 0.3, the EC50 (CD8 T cells) was 26.5 nM and the “Selectivity NK/Treg” value (NK cells) was 2.58. The EC50 (NK cells) was 3.06 nM and the EC50 (Treg cells) was 7.89 nM.
